Results: PubChem BioAssay AID330 (DTP/NCI, 2004)
Several values for one entry are separate records, joined by “and”; a condition that tells them apart may be missing. Identical values can stand only once. Toxic doses and inconclusive results are not listed. Rule for the calls: active = survival T/C of 150% or more; inactive = T/C below 125% in these data.

System: P388 leukemia ip, CD2F1 mice, survival T/C
Assay: NCI In Vivo Anticancer Drug Screen. Data for tumor model P388 Leukemia (intraperitoneal) in CD2F1 (CDF1) mice
Conditions: endpoint: median survival time, higher = longer survival
Outline: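 Mice carrying the transplanted tumor received test compound or vehicle. Survival was recorded in each group, and the value is the treated-group measurement divided by that of the vehicle-treated control group.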

[1] = dose: 50.0 mg/kg/injection, schedule: Q01DX009 (ip), vehicle: Klucel (hydroxypropylcellulose) (HPC)
[2] = dose: 100.0 mg/kg/injection, schedule: Q01DX009 (ip), vehicle: Klucel (hydroxypropylcellulose) (HPC)
[3] = dose: 60.0 mg/kg/injection, schedule: Q01DX005 (ip), vehicle: saline
[4] = dose: 120.0 mg/kg/injection, schedule: Q01DX005 (ip), vehicle: saline
[5] = dose: 240.0 mg/kg/injection, schedule: Q01DX005 (ip), vehicle: saline
[6] = dose: 50.0 mg/kg/injection, schedule: Q01DX009 (ip), vehicle: saline with Tween-80
[7] = dose: 100.0 mg/kg/injection, schedule: Q01DX009 (ip), vehicle: saline with Tween-80
[8] = dose: 200.0 mg/kg/injection, schedule: Q01DX009 (ip), vehicle: saline with Tween-80
[9] = dose: 50.0 mg/kg/injection, schedule: Q01DX005 (ip), vehicle: saline with Tween-80
[10] = dose: 100.0 mg/kg/injection, schedule: Q01DX005 (ip), vehicle: saline with Tween-80
[11] = dose: 200.0 mg/kg/injection, schedule: Q01DX005 (ip), vehicle: saline with Tween-80
[12] = dose: 100.0 mg/kg/injection, schedule: Q04DX003 (ip), vehicle: saline
[13] = dose: 12.5 mg/kg/injection, schedule: Q01DX009 (ip), vehicle: water
[14] = dose: 50.0 mg/kg/injection, schedule: Q04DX003 (ip), vehicle: saline
[15] = dose: 50.0 mg/kg/injection, schedule: Q01DX005 (ip), vehicle: Klucel (hydroxypropylcellulose) (HPC)
[16] = dose: 100.0 mg/kg/injection, schedule: Q01DX005 (ip), vehicle: Klucel (hydroxypropylcellulose) (HPC)
[17] = dose: 200.0 mg/kg/injection, schedule: Q01DX005 (ip), vehicle: Klucel (hydroxypropylcellulose) (HPC)
[18] = dose: 25.0 mg/kg/injection, schedule: Q04DX003 (ip), vehicle: saline with Tween-80
[19] = dose: 50.0 mg/kg/injection, schedule: Q04DX003 (ip), vehicle: saline with Tween-80
[20] = dose: 100.0 mg/kg/injection, schedule: Q04DX003 (ip), vehicle: saline with Tween-80

Measured: T/C

O=C1OCc2c[n+]([O-])ccc21
inactive: dose: 20.0 mg/kg/injection, schedule: Q01DX005 (ip), vehicle: Klucel (hydroxypropylcellulose) (HPC) 96 % of control | dose: 40.0 mg/kg/injection, schedule: Q01DX005 (ip), vehicle: Klucel (hydroxypropylcellulose) (HPC) 118 % of control | dose: 80.0 mg/kg/injection, schedule: Q01DX005 (ip), vehicle: Klucel (hydroxypropylcellulose) (HPC) 91 % of control

CC1(c2ccccc2)NC(=O)N(CC(=O)N(c2ccccc2)c2ccccc2)C1=O (configuration not stated)
inactive: dose: 7.5 mg/kg/injection, schedule: Q01DX005 (ip), vehicle: saline with Tween-80 91 % of control | dose: 15.0 mg/kg/injection, schedule: Q01DX005 (ip), vehicle: saline with Tween-80 92 % of control | dose: 30.0 mg/kg/injection, schedule: Q01DX005 (ip), vehicle: saline with Tween-80 92 % of control and 93 % of control | dose: 60.0 mg/kg/injection, schedule: Q01DX005 (ip), vehicle: saline with Tween-80 87 % of control and 88 % of control | dose: 120.0 mg/kg/injection, schedule: Q01DX005 (ip), vehicle: saline with Tween-80 86 % of control | dose: 240.0 mg/kg/injection, schedule: Q01DX005 (ip), vehicle: saline with Tween-80 94 % of control

Nc1nc2ccc(CNc3ccc(C(=O)NC(CC(=O)O)C(=O)O)cc3)cc2c(=O)[nH]1 (configuration not stated)
inactive: dose: 12.5 mg/kg/injection, schedule: Q01DX009 (ip), vehicle: Klucel (hydroxypropylcellulose) (HPC) 100 % of control | dose: 25.0 mg/kg/injection, schedule: Q01DX009 (ip), vehicle: Klucel (hydroxypropylcellulose) (HPC) 96 % of control | [1] 99 % of control and 103 % of control | [2] 116 % of control

CC12NCCC(CC(=O)N1)C2(C)C (configuration not stated)
inactive: [3] 103 % of control | [4] 110 % of control | [5] 106 % of control

Oc1ccc(O)c2nc3ccccc3nc12
inactive: dose: 1.56 mg/kg/injection, schedule: Q01DX009 (ip), vehicle: distilled water + Tween-80 104 % of control | dose: 3.12 mg/kg/injection, schedule: Q01DX009 (ip), vehicle: distilled water + Tween-80 105 % of control | dose: 6.25 mg/kg/injection, schedule: Q01DX009 (ip), vehicle: distilled water + Tween-80 104 % of control and 97 % of control

CC(=O)OCC1OC(S[As](C)C)C(OC(C)=O)C(OC(C)=O)C1OC(C)=O (configuration not stated)
inactive: dose: 25.0 mg/kg/injection, schedule: Q01DX009 (ip), vehicle: saline with Tween-80 114 % of control | [6] 111 % of control | [7] 116 % of control | [8] 124 % of control

CN(C)C1CCC(NC2=CC(=O)C=CC2=O)CC1 (configuration not stated)
inactive: dose: 0.78 mg/kg/injection, schedule: Q01DX005 (ip), vehicle: saline 101 % of control | dose: 1.56 mg/kg/injection, schedule: Q01DX005 (ip), vehicle: saline 97 % of control | dose: 3.12 mg/kg/injection, schedule: Q01DX005 (ip), vehicle: saline 97 % of control

O=c1ccc2cc3c(c(O)c2o1)OC=CC3
inactive: [1] 98 % of control | [2] 94 % of control

O=C(CNC(=O)C(Cc1c[nH]c2ccccc12)NC(=O)OCc1ccccc1)NCC(=O)OCc1ccccc1 (configuration not stated)
inactive: [9] 104 % of control | [10] 100 % of control | [11] 110 % of control

NC(=O)NNC(=O)NNC(N)=O
inactive: [12] 98 % of control | dose: 200.0 mg/kg/injection, schedule: Q04DX003 (ip), vehicle: saline 96 % of control | dose: 400.0 mg/kg/injection, schedule: Q04DX003 (ip), vehicle: saline 106 % of control

Cc1ccc(S(=O)(=O)N/N=C2/C=CC3(CC2)CC2C=CC3C2)cc1 (configuration not stated)
inactive: dose: 50.0 mg/kg/injection, schedule: Q01DX001 (ip), vehicle: Klucel (hydroxypropylcellulose) (HPC) 91 % of control | dose: 100.0 mg/kg/injection, schedule: Q01DX001 (ip), vehicle: Klucel (hydroxypropylcellulose) (HPC) 89 % of control | dose: 200.0 mg/kg/injection, schedule: Q01DX001 (ip), vehicle: Klucel (hydroxypropylcellulose) (HPC) 101 % of control

NCC1=NCCN1
inactive: [3] 92 % of control | [4] 99 % of control | [5] 94 % of control

O=NCC(=O)OCc1ccccc1
inactive: [13] 95 % of control | dose: 25.0 mg/kg/injection, schedule: Q01DX009 (ip), vehicle: water 87 % of control | dose: 50.0 mg/kg/injection, schedule: Q01DX009 (ip), vehicle: water 95 % of control | dose: 100.0 mg/kg/injection, schedule: Q01DX009 (ip), vehicle: water 99 % of control | dose: 200.0 mg/kg/injection, schedule: Q01DX009 (ip), vehicle: water 99 % of control

CN1CC2CN(C)CC(C1)C2(O)c1ccccc1 (configuration not stated)
inactive: dose: 12.5 mg/kg/injection, schedule: Q01DX009 (ip), vehicle: saline 97 % of control | dose: 25.0 mg/kg/injection, schedule: Q01DX009 (ip), vehicle: saline 98 % of control

[N-]=[N+]=NC12CC3CC(CC(C3)C1)C2
inactive: [9] 100 % of control | [10] 101 % of control | [11] 106 % of control

CC(C)N1CCOC1c1ccccc1 (configuration not stated)
inactive: dose: 50.0 mg/kg/injection, schedule: Q04DX003 (ip), vehicle: saline sonified 109 % of control | dose: 100.0 mg/kg/injection, schedule: Q04DX003 (ip), vehicle: saline sonified 118 % of control | dose: 200.0 mg/kg/injection, schedule: Q04DX003 (ip), vehicle: saline sonified 109 % of control

CC1(O)CC[N+](C)(C)CC1c1ccccc1 (configuration not stated)
inactive: [14] 118 % of control | [12] 113 % of control

CNCCSSCCN
inactive: dose: 25.0 mg/kg/injection, schedule: Q04DX003 (ip), vehicle: saline 100 % of control | [14] 90 % of control | [12] 86 % of control

Cn1cnc([N+](=O)[O-])c1SCC(N)C(=O)O (configuration not stated)
inactive: [15] 94 % of control | [16] 94 % of control | [17] 94 % of control

Cc1noc2nccnc12
inactive: [18] 100 % of control | [19] 91 % of control | [20] 91 % of control

O=S1(=O)C=C(c2cccs2)C1
inactive: [18] 97 % of control | [19] 109 % of control | [20] 105 % of control and 112 % of control

CC1CC(=O)Nc2ncccc2N1 (configuration not stated)
inactive: [6] 94 % of control | [7] 94 % of control | [8] 94 % of control

CCCCC/C=C/C/C=C\CCCCCCCC(=O)NC(Cc1ccc(C)cc1)c1ccccc1 (configuration not stated)
inactive: [6] 98 % of control | [7] 100 % of control | [8] 100 % of control

O=c1[nH]ncn2nc3ccccc3c12
inactive: [9] 100 % of control | [10] 100 % of control | [11] 104 % of control

CNC(=S)P(c1ccccc1)c1ccccc1
inactive: [15] 105 % of control | [16] 96 % of control | [17] 105 % of control

CNC(=O)OC/C=C/c1ccccc1
inactive: [6] 99 % of control | [7] 99 % of control | [8] 92 % of control

O=NNc1ccc(SSc2ccc(NN=O)cc2)cc1
inactive: dose: 1.56 mg/kg/injection, schedule: Q01DX009 (ip), vehicle: water 106 % of control | dose: 3.12 mg/kg/injection, schedule: Q01DX009 (ip), vehicle: water 100 % of control and 124 % of control | dose: 6.25 mg/kg/injection, schedule: Q01DX009 (ip), vehicle: water 121 % of control | [13] 123 % of control

CCCCCc1c(C)[nH]n(C(N)=NCCSCc2nc[nH]c2C)c1=O
inactive: dose: 60.0 mg/kg/injection, schedule: Q01DX005 (ip), vehicle: Klucel (hydroxypropylcellulose) (HPC) 100 % of control | dose: 120.0 mg/kg/injection, schedule: Q01DX005 (ip), vehicle: Klucel (hydroxypropylcellulose) (HPC) 102 % of control | dose: 240.0 mg/kg/injection, schedule: Q01DX005 (ip), vehicle: Klucel (hydroxypropylcellulose) (HPC) 91 % of control

CSC(C#N)(Cc1ccccc1)N1CCOCC1 (configuration not stated)
inactive: [20] 107 % of control | dose: 200.0 mg/kg/injection, schedule: Q04DX003 (ip), vehicle: saline with Tween-80 103 % of control | dose: 400.0 mg/kg/injection, schedule: Q04DX003 (ip), vehicle: saline with Tween-80 103 % of control
